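How tested: cells in 96-well plates exposed to compound for 48 hours at five concentrations. GI50 = concentration required for 50% inhibition of growth.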 Active and inactive are the calls of the source. Cut-off read from the data, not from the text of the source: active = GI50 up to about 1.1 µM and inactive = higher.
Columns and labels:
Experiment in all cases: growth of human tumour cells (NCI), 48 h
786-0 = test system: 786-0
A498 = test system: A498
A549 = test system: A549
ACHN = test system: ACHN
BT-549 = test system: BT-549
CAKI-1 = test system: CAKI-1
CCRF-CEM = test system: CCRF-CEM
COLO 205 = test system: COLO 205
DU-145 = test system: DU-145
EKVX = test system: EKVX
HCC 2998 = test system: HCC 2998
HCT-116 = test system: HCT-116
HCT-15 = test system: HCT-15
HL-60 = test system: HL-60
HOP-62 = test system: HOP-62
HOP-92 = test system: HOP-92
HT-29 = test system: HT-29
Hs-578T = test system: Hs-578T
IGROV-1 = test system: IGROV-1
K562 = test system: K562
KM12 = test system: KM12
LOX IMVI = test system: LOX IMVI
M14 = test system: M14
MCF7 = test system: MCF7
MDA-MB-231 = test system: MDA-MB-231
MDA-MB-435 = test system: MDA-MB-435
MDA-N = test system: MDA-N
MOLT-4 = test system: MOLT-4
Malme-3M = test system: Malme-3M
NCI-H226 = test system: NCI-H226
NCI-H23 = test system: NCI-H23
NCI-H460 = test system: NCI-H460
NCI-H522 = test system: NCI-H522
NCI/ADR-RES = test system: NCI/ADR-RES
OVCAR-3 = test system: OVCAR-3
OVCAR-4 = test system: OVCAR-4
OVCAR-5 = test system: OVCAR-5
OVCAR-8 = test system: OVCAR-8
PC-3 = test system: PC-3
RPMI-8226 = test system: RPMI-8226
RXF 393 = test system: RXF 393
SF-268 = test system: SF-268
SF-295 = test system: SF-295
SF-539 = test system: SF-539
SK-MEL-28 = test system: SK-MEL-28
SK-MEL-2 = test system: SK-MEL-2
SK-MEL-5 = test system: SK-MEL-5
SK-OV-3 = test system: SK-OV-3
SN12C = test system: SN12C
SNB-19 = test system: SNB-19
SNB-75 = test system: SNB-75
SR = test system: SR
SW-620 = test system: SW-620
T47D = test system: T47D
TK-10 = test system: TK-10
U-251 = test system: U-251
UACC-257 = test system: UACC-257
UACC-62 = test system: UACC-62
UO-31 = test system: UO-31

SMILES: CC[C@@]1(O)C(=O)OCc2c1cc1n(c2=O)Cc2c-1nc1ccccc1c2/C=N\NC(=O)C(N)Cc1c[nH]cn1 (some centres undefined)
- GI50 (786-0): 213 nM (active)
- GI50 (A498): 857 nM (active)
- GI50 (A549): 452 nM (active)
- GI50 (ACHN): 43 nM (active)
- GI50 (BT-549): 3450 nM (inactive)
- GI50 (CAKI-1): 147 nM (active)
- GI50 (CCRF-CEM): 21.4 nM (active)
- GI50 (COLO 205): 8390 nM (inactive)
- GI50 (DU-145): 181 nM (active)
- GI50 (EKVX): 7450 nM (inactive)
- GI50 (HCC 2998): 1510 nM (inactive)
- GI50 (HCT-116): 430 nM (active)
- GI50 (HCT-15): 1340 nM
- GI50 (HL-60): 164 nM (active)
- GI50 (HOP-62): 52.4 nM (active)
- GI50 (HOP-92): 1100 nM (active)
- GI50 (HT-29): 2100 nM (inactive)
- GI50 (Hs-578T): > 64900 nM (inactive)
- GI50 (IGROV-1): 3750 nM (inactive)
- GI50 (K562): 468 nM (active)
- GI50 (KM12): 2380 nM (inactive)
- GI50 (LOX IMVI): 131 nM (active)
- GI50 (M14): 324 nM (active)
- GI50 (MCF7): 88.5 nM (active)
- GI50 (MDA-MB-231): 3400 nM (inactive)
- GI50 (MDA-MB-435): 1370 nM (inactive)
- GI50 (MDA-N): 1900 nM (inactive)
- GI50 (MOLT-4): 25.9 nM (active)
- GI50 (Malme-3M): 2530 nM (inactive)
- GI50 (NCI-H226): 571 nM (active)
- GI50 (NCI-H23): 111 nM (active)
- GI50 (NCI-H460): 83.2 nM (active)
- GI50 (NCI-H522): 372 nM (active)
- GI50 (NCI/ADR-RES): 410 nM (active)
- GI50 (OVCAR-3): 3950 nM (inactive)
- GI50 (OVCAR-4): 4410 nM (inactive)
- GI50 (OVCAR-5): 3560 nM (inactive)
- GI50 (OVCAR-8): 184 nM (active)
- GI50 (PC-3): 644 nM (active)
- GI50 (RPMI-8226): 356 nM (active)
- GI50 (RXF 393): 861 nM (active)
- GI50 (SF-268): 54.5 nM (active)
- GI50 (SF-295): 132 nM (active)
- GI50 (SF-539): 52.8 nM (active)
- GI50 (SK-MEL-28): 1260 nM (inactive)
- GI50 (SK-MEL-2): 7740 nM (inactive)
- GI50 (SK-MEL-5): 222 nM (active)
- GI50 (SK-OV-3): 234 nM (active)
- GI50 (SN12C): 67.3 nM (active)
- GI50 (SNB-19): 90.8 nM (active)
- GI50 (SNB-75): 67 nM (active)
- GI50 (SR): 10.1 nM (active)
- GI50 (SW-620): 148 nM (active)
- GI50 (T47D): 158 nM (active)
- GI50 (TK-10): 13300 nM (inactive)
- GI50 (U-251): 77.6 nM (active)
- GI50 (UACC-257): 2680 nM (inactive)
- GI50 (UACC-62): 72.3 nM (active)
- GI50 (UO-31): 348 nM (active)

SMILES: C(=C(c1ccc(OC2CCCCO2)cc1)c1ccc(OC2CCCCO2)cc1)c1ccccc1 (centres undefined)
- GI50 (786-0): 519 nM (active)
- GI50 (A498): 1310 nM (inactive)
- GI50 (A549): 522 nM (active)
- GI50 (ACHN): 1060 nM (active)
- GI50 (BT-549): 543 nM (active)
- GI50 (CAKI-1): 637 nM (active)
- GI50 (CCRF-CEM): 246 nM (active)
- GI50 (COLO 205): 583 nM (active)
- GI50 (DU-145): 838 nM (active)
- GI50 (EKVX): 456 nM (active)
- GI50 (HCC 2998): 723 nM (active)
- GI50 (HCT-116): 412 nM (active)
- GI50 (HCT-15): 800 nM
- GI50 (HL-60): 233 nM (active)
- GI50 (HOP-62): 925 nM (active)
- GI50 (HOP-92): 524 nM (active)
- GI50 (HT-29): 386 nM (active)
- GI50 (Hs-578T): 1130 nM (inactive)
- GI50 (IGROV-1): 524 nM (active)
- GI50 (K562): 350 nM (active)
- GI50 (KM12): 156 nM (active)
- GI50 (LOX IMVI): 232 nM (active)
- GI50 (M14): 697 nM (active)
- GI50 (MCF7): 99.5 nM (active)
- GI50 (MDA-MB-231): 361 nM (active)
- GI50 (MDA-MB-435): 557 nM (active)
- GI50 (MDA-N): 634 nM (active)
- GI50 (MOLT-4): 392 nM (active)
- GI50 (Malme-3M): 863 nM (active)
- GI50 (NCI-H226): 1210 nM (inactive)
- GI50 (NCI-H23): 546 nM (active)
- GI50 (NCI-H460): 395 nM (active)
- GI50 (NCI-H522): 1090 nM (active)
- GI50 (NCI/ADR-RES): 883 nM (active)
- GI50 (OVCAR-3): 577 nM (active)
- GI50 (OVCAR-4): 392 nM (active)
- GI50 (OVCAR-5): 1060 nM (active)
- GI50 (OVCAR-8): 598 nM (active)
- GI50 (PC-3): 469 nM (active)
- GI50 (RPMI-8226): 294 nM (active)
- GI50 (RXF 393): 1030 nM (active)
- GI50 (SF-268): 1090 nM (active)
- GI50 (SF-295): 1180 nM (inactive)
- GI50 (SF-539): 1530 nM (inactive)
- GI50 (SK-MEL-28): 1040 nM (active)
- GI50 (SK-MEL-2): 1400 nM (inactive)
- GI50 (SK-MEL-5): 444 nM (active)
- GI50 (SK-OV-3): 1290 nM (inactive)
- GI50 (SN12C): 1020 nM (active)
- GI50 (SNB-19): 1260 nM (inactive)
- GI50 (SNB-75): 605 nM (active)
- GI50 (SR): 371 nM (active)
- GI50 (SW-620): 540 nM (active)
- GI50 (T47D): 526 nM (active)
- GI50 (TK-10): 1140 nM (inactive)
- GI50 (U-251): 792 nM (active)
- GI50 (UACC-257): 378 nM (active)
- GI50 (UACC-62): 547 nM (active)
- GI50 (UO-31): 895 nM (active)

SMILES: Cc1cc(C)c2c(c1)CC1(Cc3c(C)ccc(C)c3C1=O)C2=O (centres undefined)
- GI50 (A498): > 100000 nM (inactive)
- GI50 (A549): > 100000 nM (inactive)
- GI50 (ACHN): > 100000 nM (inactive)
- GI50 (BT-549): > 100000 nM (inactive)
- GI50 (CAKI-1): > 100000 nM (inactive)
- GI50 (CCRF-CEM): > 100000 nM (inactive)
- GI50 (COLO 205): > 100000 nM (inactive)
- GI50 (DU-145): > 100000 nM (inactive)
- GI50 (EKVX): > 100000 nM (inactive)
- GI50 (HCC 2998): > 100000 nM (inactive)
- GI50 (HCT-15): > 100000 nM
- GI50 (HL-60): > 100000 nM (inactive)
- GI50 (HOP-92): > 100000 nM (inactive)
- GI50 (Hs-578T): > 100000 nM (inactive)
- GI50 (IGROV-1): > 100000 nM (inactive)
- GI50 (K562): > 100000 nM (inactive)
- GI50 (KM12): > 100000 nM (inactive)
- GI50 (M14): > 100000 nM (inactive)
- GI50 (MCF7): > 100000 nM (inactive)
- GI50 (MDA-MB-231): > 100000 nM (inactive)
- GI50 (MDA-MB-435): > 100000 nM (inactive)
- GI50 (MDA-N): > 100000 nM (inactive)
- GI50 (MOLT-4): > 100000 nM (inactive)
- GI50 (Malme-3M): > 100000 nM (inactive)
- GI50 (NCI-H226): > 100000 nM (inactive)
- GI50 (NCI-H460): > 100000 nM (inactive)
- GI50 (NCI-H522): > 100000 nM (inactive)
- GI50 (NCI/ADR-RES): > 100000 nM (inactive)
- GI50 (OVCAR-3): > 100000 nM (inactive)
- GI50 (OVCAR-4): > 100000 nM (inactive)
- GI50 (OVCAR-5): > 100000 nM (inactive)
- GI50 (OVCAR-8): > 100000 nM (inactive)
- GI50 (PC-3): > 100000 nM (inactive)
- GI50 (RPMI-8226): > 100000 nM (inactive)
- GI50 (RXF 393): > 100000 nM (inactive)
- GI50 (SF-268): > 100000 nM (inactive)
- GI50 (SF-295): > 100000 nM (inactive)
- GI50 (SF-539): > 100000 nM (inactive)
- GI50 (SK-MEL-28): > 100000 nM (inactive)
- GI50 (SK-MEL-2): > 100000 nM (inactive)
- GI50 (SK-MEL-5): > 100000 nM (inactive)
- GI50 (SN12C): > 100000 nM (inactive)
- GI50 (SNB-19): > 100000 nM (inactive)
- GI50 (SNB-75): > 100000 nM (inactive)
- GI50 (SR): > 100000 nM (inactive)
- GI50 (SW-620): > 100000 nM (inactive)
- GI50 (T47D): > 100000 nM (inactive)
- GI50 (TK-10): > 100000 nM (inactive)
- GI50 (U-251): > 100000 nM (inactive)
- GI50 (UACC-257): > 100000 nM (inactive)
- GI50 (UACC-62): > 100000 nM (inactive)
